Source: patent US20240124417A1, “COMPOUNDS USEFUL AS IMMUNOMODULATORS” (Bristol-Myers Squibb Company, priority 2019, published 2024)

These molecules were tested against T1, PD-1/PD-L1 (Homo sapiens, UniProt Q9NZQ7) (assay: PD-1/PD-L1 Homogenous Time-Resolved Fluorescence (HTRF) binding assay). Details: PD-L1-His 10 nM, PD-1-Ig 20 nM.
T1 construct: TVMV protease site linker (C); made in house; host or cells: HEK293T cells
How it was run: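 Time-resolved FRET read-out using Eu-cryptate anti-Ig (1 nM final) and APC anti-His (20 nM final). Tagged extracellular domains were used in BSA/Tween-20-supplemented dPBS, with compound pre-incubated 15 min with PD-L1-His (10 nM) before PD-1-Ig (20 nM) was added for 15 min. Other human pairs: PD-L2-His 5 nM with PD-1-Ig 20 nM; PD-L1-Ig 10 nM with CD80-His 100 nM.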

T1 sequence (Q9NZQ7 18-239): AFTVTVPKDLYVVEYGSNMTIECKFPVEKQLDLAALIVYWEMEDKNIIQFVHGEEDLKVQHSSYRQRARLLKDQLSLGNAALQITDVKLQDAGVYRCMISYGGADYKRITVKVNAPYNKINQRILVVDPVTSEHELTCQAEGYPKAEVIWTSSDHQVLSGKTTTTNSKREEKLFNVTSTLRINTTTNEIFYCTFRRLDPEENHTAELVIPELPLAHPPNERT

Question: With `Cc1c(COc2cc(OCc3cncc(C#N)c3)c(CN3CCCC(c4ccn[nH]4)C3)cc2Cl)cccc1-c1cccc(OCC2CCCN(C)C2)c1Cl` (stereo not drawn) [Example 1024, 5-((2-((3-(1H-Pyrazol-5-yl)piperidin-1-yl)methyl)-4-chloro-5-((2′-chloro-2-methyl-3′-((1-methylpiperidin-3-yl)methoxy)-[1,1′-biphenyl]-3-yl)methoxy)phenoxy)methyl)-nicotinonitrile] as the molecule, how does the IC50 read?
Answer: The IC50 was 0.7 nM.

Question: Which IC50 does the source give for `Cc1c(COc2cc(OCc3cncc(C#N)c3)c(CN(C)Cc3cncs3)cc2Cl)cccc1-c1cccc(OCCCN2CC[C@@H](O)C2)c1C` [Example 2534, (R)-5-((4-chloro-5-((3′-(3-(3-hydroxypyrrolidin-1-yl)propoxy)-2,2′-dimethyl-[1,1′-biphenyl]-3-yl)methoxy)-2-((methyl(thiazol-5-ylmethyl)amino)methyl)phenoxy)methyl)nicotinonitrile] here?
Answer: The IC50 was 3.4 nM.

Question: How did the IC50 turn out when `Cc1c(COc2cc(OCc3cncc(C#N)c3)c(CNCCc3c[nH]cn3)cc2Cl)cccc1-c1cccc(OCCCN2CC[C@@H](O)C2)c1C` [Example 2532, (R)-5-((2-(((2-(1H-imidazol-4-yl)ethyl)amino)methyl)-4-chloro-5-((3′-(3-(3-hydroxypyrrolidin-1-yl)propoxy)-2,2′-dimethyl-[1,1′-biphenyl]-3-yl)methoxy)phenoxy)methyl)nicotinonitrile] was run?
Answer: The IC50 was 4.8 nM.

Question: With `Cc1c(COc2cc(OCc3cncc(C#N)c3)c(CN3CCc4[nH]ncc4C3)cc2Cl)cccc1-c1cccc(OCC2CCCN(C)C2)c1Cl` (stereo not drawn) [Example 2587, 5-((4-chloro-5-((2′-chloro-2-methyl-3′-((1-methylpiperidin-3-yl)methoxy)-[1,1′-biphenyl]-3-yl)methoxy)-2-((1,4,6,7-tetrahydro-5H-pyrazolo[4,3-c]pyridin-5-yl)methyl)phenoxy)methyl)nicotinonitrile] as the molecule, how does the IC50 read?
Answer: The IC50 was 0.9 nM.

Question: How did the IC50 turn out when `Cc1c(COc2cc(OCc3cncc(C#N)c3)c(CNCc3ncco3)cc2Cl)cccc1-c1cccc(OCC2CCCN(C)C2)c1Cl` (stereo not drawn) [Example 2590, 5-((4-chloro-5-((2′-chloro-2-methyl-3′-((1-methylpiperidin-3-yl)methoxy)-[1,1′-biphenyl]-3-yl)methoxy)-2-(((oxazol-2-ylmethyl)amino)methyl)phenoxy)methyl)nicotinonitrile] was run?
Answer: The IC50 was 2 nM.

Question: With `Cc1c(COc2cc(OCc3cncc(C#N)c3)c(CNCc3ccc4cc[nH]c4c3)cc2Cl)cccc1-c1cccc(OCC2CCCN(C)C2)c1Cl` (stereo not drawn) [Example 2606, 5-((2-((((1H-indol-6-yl)methyl)amino)methyl)-4-chloro-5-((2′-chloro-2-methyl-3′-((1-methylpiperidin-3-yl)methoxy)-[1,1′-biphenyl]-3-yl)methoxy)phenoxy)methyl)nicotinonitrile] as the molecule, how does the IC50 read?
Answer: The IC50 was 1.4 nM.

Question: `Cc1c(COc2cc(OCc3cnccn3)c(CNCc3ncccn3)cc2Cl)cccc1-c1cccc(OCC2CCCN(C)C2)c1Cl` (stereo not drawn) [Example 2059, N-(5-chloro-4-((2′-chloro-2-methyl-3′-((1-methylpiperidin-3-yl)methoxy)-[1,1′-biphenyl]-3-yl)methoxy)-2-(pyrazin-2-ylmethoxy)benzyl)-1-(pyrimidin-2-yl)methanamine] was tested. Which IC50 did it give?
Answer: Its IC50 is 4.4 nM.

Question: For `Cc1c(COc2cc(OCc3cncc(C#N)c3)c(CN3CCc4cn[nH]c4C3)cc2Cl)cccc1-c1cccc(OCC2CCCN(C)C2)c1Cl` (stereo not drawn) [Example 2589, 5-((4-chloro-5-((2′-chloro-2-methyl-3′-((1-methylpiperidin-3-yl)methoxy)-[1,1′-biphenyl]-3-yl)methoxy)-2-((1,4,5,7-tetrahydro-6H-pyrazolo[3,4-c]pyridin-6-yl)methyl)phenoxy)methyl)nicotinonitrile], which IC50 is on record?
Answer: The IC50 was 7.9 nM.

Question: With `Cc1c(COc2cc(OCc3cncc(C#N)c3)c(CNCc3ncn[nH]3)cc2Cl)cccc1-c1cccc(OCCCN2CC[C@@H](O)C2)c1C` [Example 2002, (R)-5-((2-((((1H-1,2,4-triazol-5-yl)methyl)amino)methyl)-4-chloro-5-((3′-(3-(3-hydroxypyrrolidin-1-yl)propoxy)-2,2′-dimethyl-[1,1′-biphenyl]-3-yl)methoxy)phenoxy)methyl)nicotinonitrile] as the molecule, how does the IC50 read?
Answer: Its IC50 is 9.3 nM.

Question: `Cc1c(COc2cc(OCc3cncc(C#N)c3)c(CNCc3ccnc(C#N)n3)cc2Cl)cccc1-c1cccc(OCCCN2CCC(O)(CO)CC2)c1Cl` [Example 2044, 4-(((5-chloro-4-((2′-chloro-3′-(3-(4-hydroxy-4-(hydroxymethyl)piperidin-1-yl)propoxy)-2-methyl-[1,1′-biphenyl]-3-yl)methoxy)-2-((5-cyanopyridin-3-yl)methoxy)benzyl)amino)methyl)pyrimidine-2-carbonitrile] was tested. Which IC50 did it give?
Answer: The IC50 was 1.4 nM.

Question: `Cc1c(COc2cc(OCc3cncc(C#N)c3)c(CN(C)Cc3cocn3)cc2Cl)cccc1-c1cccc(OCCCN2CC[C@@H](O)C2)c1C` [Example 2544, (R)-5-((4-chloro-5-((3′-(3-(3-hydroxypyrrolidin-1-yl)propoxy)-2,2′-dimethyl-[1,1′-biphenyl]-3-yl)methoxy)-2-((methyl(oxazol-4-ylmethyl)amino)methyl)phenoxy)methyl)nicotinonitrile] was tested. Which IC50 did it give?
Answer: Its IC50 is 1.6 nM.

Question: With `Cc1n[nH]c(C)c1C(NCc1cc(Cl)c(OCc2cccc(-c3cccc(OCC4CCCN(C)C4)c3Cl)c2C)cc1OCc1cncc(C#N)c1)C(=O)O` (stereo not drawn) [Example 1027, 2-((5-Chloro-4-((2′-chloro-2-methyl-3′-((1-methylpiperidin-3-yl)methoxy)-[1,1′-biphenyl]-3-yl)methoxy)-2-((5-cyanopyridin-3-yl)methoxy)benzyl)amino)-2-(3,5-dimethyl-1H-pyrazol-4-yl)acetic acid] as the molecule, how does the IC50 read?
Answer: Its IC50 is 1.1 nM.

Question: With `Cc1c(COc2cc(OCc3cncc(C#N)c3)c(CN(C)Cc3nc4ccccc4s3)cc2Cl)cccc1-c1cccc(OCCCN2CC[C@@H](O)C2)c1C` [Example 2554, (R)-5-((2-(((benzo[d]thiazol-2-ylmethyl)(methyl)amino)methyl)-4-chloro-5-((3′-(3-(3-hydroxypyrrolidin-1-yl)propoxy)-2,2′-dimethyl-[1,1′-biphenyl]-3-yl)methoxy)phenoxy)methyl)nicotinonitrile] as the molecule, how does the IC50 read?
Answer: The IC50 was 258 nM.

Question: How did the IC50 turn out when `Cc1noc(C)c1CNCc1cc(Cl)c(OCc2cccc(-c3cccc(OCCCN4CC[C@@H](O)C4)c3C)c2C)cc1OCc1cncc(C#N)c1` [Example 2526, (R)-5-((4-chloro-2-((((3,5-dimethylisoxazol-4-yl)methyl)amino)methyl)-5-((3′-(3-(3-hydroxypyrrolidin-1-yl)propoxy)-2,2′-dimethyl-[1,1′-biphenyl]-3-yl)methoxy)phenoxy)methyl)nicotinonitrile] was run?
Answer: Its IC50 is 3 nM.

Question: Which IC50 does the source give for `Cc1c(COc2cc(OCc3cncc(C#N)c3)c(CNCc3cn[nH]c3)cc2Cl)cccc1-c1cccc(OC2CCC(N3CCCC3)CC2)c1Cl` (stereo not drawn) [Example 2052, 5-((2-((((1H-pyrazol-4-yl)methyl)amino)methyl)-4-chloro-5-((2′-chloro-2-methyl-3′-((4-(pyrrolidin-1-yl)cyclohexyl)oxy)-[1,1′-biphenyl]-3-yl)methoxy)phenoxy)methyl)nicotinonitrile] here?
Answer: Its IC50 is 9.6 nM.

Question: With `Cc1c(COc2cc(OCc3cnccn3)c(CNCc3cccnn3)cc2Cl)cccc1-c1cccc(OCC2CCCN(C)C2)c1Cl` (stereo not drawn) [Example 2058, N-(5-chloro-4-((2′-chloro-2-methyl-3′-((1-methylpiperidin-3-yl)methoxy)-[1,1′-biphenyl]-3-yl)methoxy)-2-(pyrazin-2-ylmethoxy)benzyl)-1-(pyridazin-3-yl)methanamine] as the molecule, how does the IC50 read?
Answer: The IC50 was 3.9 nM.

Question: Which IC50 does the source give for `Cc1c(COc2cc(OCc3cncc(C#N)c3)c(CN(C)Cc3ccncc3)cc2Cl)cccc1-c1cccc(OCCCN2CC[C@@H](O)C2)c1C` [Example 2029, (R)-5-((4-chloro-5-((3′-(3-(3-hydroxypyrrolidin-1-yl)propoxy)-2,2′-dimethyl-[1,1′-biphenyl]-3-yl)methoxy)-2-((methyl(pyridin-4-ylmethyl)amino)methyl)phenoxy)methyl)nicotinonitrile] here?
Answer: The IC50 was 4.1 nM.

Question: For `Cc1c(COc2cc(OCc3cncc(C#N)c3)c(CNCc3cc(-c4ccccc4)on3)cc2Cl)cccc1-c1cccc(OCCCN2CC[C@@H](O)C2)c1C` [Example 2538, (R)-5-((4-chloro-5-((3′-(3-(3-hydroxypyrrolidin-1-yl)propoxy)-2,2′-dimethyl-[1,1′-biphenyl]-3-yl)methoxy)-2-((((5-phenylisoxazol-3-yl)methyl)amino)methyl)phenoxy)methyl)nicotinonitrile], which IC50 is on record?
Answer: Its IC50 is 43.8 nM.

Question: With `CC(=O)NC1CCN(CCCOc2cccc(-c3cccc(COc4cc(OCc5cncc(C#N)c5)c(CN(C)CC(C)c5nn[nH]n5)cc4Cl)c3C)c2C)CC1` (stereo not drawn) [Example 1047, N-(1-(3-((3′-((4-(((2-(2H-Tetrazol-5-yl)propyl)(methyl)amino)methyl)-2-chloro-5-((5-cyanopyridin-3-yl)methoxy)phenoxy)methyl)-2,2′-dimethyl-[1,1′-biphenyl]-3-yl)oxy)-propyl)piperidin-4-yl)acetamide] as the molecule, how does the IC50 read?
Answer: Its IC50 is 2.4 nM.

Question: How did the IC50 turn out when `Cc1n[nH]c(C)c1CN(C)Cc1cc(Cl)c(OCc2cccc(-c3cccc(OCCCN4CC[C@@H](O)C4)c3C)c2C)cc1OCc1cncc(C#N)c1` [Example 2572, (R)-5-((4-chloro-2-((((3,5-dimethyl-1H-pyrazol-4-yl)methyl)(methyl)amino)methyl)-5-((3′-(3-(3-hydroxypyrrolidin-1-yl)propoxy)-2,2′-dimethyl-[1,1′-biphenyl]-3-yl)methoxy)phenoxy)methyl)nicotinonitrile] was run?
Answer: Its IC50 is 3.3 nM.

Question: For `Cc1c(COc2cc(OCc3ncn(C(c4ccccc4)(c4ccccc4)c4ccccc4)c3C)c(CNCc3ccnc(C#N)n3)cc2Cl)cccc1-c1cccc(OCCCN2CC[C@@H](O)C2)c1C` [Example 2043, (R)-4-(((5-chloro-4-((3′-(3-(3-hydroxypyrrolidin-1-yl)propoxy)-2,2′-dimethyl-[1,1′-biphenyl]-3-yl)methoxy)-2-((5-methyl-1-trityl-1H-imidazol-4-yl)methoxy)benzyl)amino)methyl)pyrimidine-2-carbonitrile], which IC50 is on record?
Answer: Its IC50 is greater than 10000 nM.
